Results as given in ChEMBL document CHEMBL1201862, “PubChem BioAssay data set” (2004).
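Tested at 5 concentrations; 48 h exposure; 96-well plates; endpoints linearly interpolated, else capped at highest concentration. The concentration for 50% growth inhibition is given as GI50.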 Active and inactive are the calls of the source. Cut-off read from the data, not from the text of the source: active = GI50 up to about 1.1 µM and inactive = higher.

Legend:
Experiment in all cases: inhibition of tumour cell growth, NCI panel, 48 h
[1] = test system: ACHN
[2] = test system: HT-29
[3] = test system: NCI/ADR-RES
[4] = test system: U-251
[5] = test system: SN12C
[6] = test system: UACC-257
[7] = test system: SK-MEL-2
[8] = test system: HOP-92
[9] = test system: KM12
[10] = test system: TK-10
[11] = test system: RXF 393
[12] = test system: SK-MEL-28
[13] = test system: SNB-19
[14] = test system: A549
[15] = test system: SF-295
[16] = test system: IGROV-1
[17] = test system: Malme-3M
[18] = test system: SK-OV-3
[19] = test system: EKVX
[20] = test system: SF-268
[21] = test system: MDA-MB-231
[22] = test system: NCI-H226
[23] = test system: T47D
[24] = test system: UACC-62
[25] = test system: HCT-116
[26] = test system: OVCAR-3
[27] = test system: MOLT-4
[28] = test system: Hs-578T
[29] = test system: MDA-N
[30] = test system: OVCAR-8
[31] = test system: NCI-H23
[32] = test system: UO-31
[33] = test system: OVCAR-4
[34] = test system: K562
[35] = test system: HCT-15
[36] = test system: COLO 205
[37] = test system: BT-549
[38] = test system: CAKI-1
[39] = test system: LOX IMVI
[40] = test system: SK-MEL-5
[41] = test system: A498
[42] = test system: MCF7
[43] = test system: 786-0
[44] = test system: SR
[45] = test system: RPMI-8226
[46] = test system: DU-145
[47] = test system: HL-60
[48] = test system: OVCAR-5
[49] = test system: NCI-H522
[50] = test system: HOP-62
[51] = test system: M14
[52] = test system: MDA-MB-435
[53] = test system: PC-3
[54] = test system: SW-620
[55] = test system: HCC 2998
[56] = test system: NCI-H460
[57] = test system: SNB-75
[58] = test system: SF-539
[59] = test system: CCRF-CEM

Q: Which GI50 [1] does the source give for O=C1[C@@H]2Cc3c([nH]c4ccccc34)C(C3CCCCC3)N2C(=O)[C@@H]2CCCN12 (stereo partly specified) here?
A: 28.9 µM (inactive)

Q: And the GI50 [2]?
A: 28.5 µM (inactive)

Q: What about the GI50 [3] of the same compound?
A: 22 µM (inactive)

Q: And the GI50 [4]?
A: 33.8 µM (inactive)

Q: And the GI50 [5]?
A: 26.5 µM (inactive)

Q: What about the GI50 [6] of the same compound?
A: 29.2 µM (inactive)

Q: What about the GI50 [7] of the same compound?
A: 20 µM (inactive)

Q: What about the GI50 [8] of the same compound?
A: 29.6 µM (inactive)

Q: And the GI50 [9]?
A: 23.3 µM (inactive)

Q: What about the GI50 [10] of the same compound?
A: 35.6 µM (inactive)

Q: What about the GI50 [11] of the same compound?
A: 29.9 µM (inactive)

Q: And the GI50 [12]?
A: 50.2 µM (inactive)

Q: And the GI50 [13]?
A: 39.9 µM (inactive)

Q: And the GI50 [14]?
A: 33.1 µM (inactive)

Q: And the GI50 [15]?
A: 21.1 µM (inactive)

Q: And the GI50 [16]?
A: 29.6 µM (inactive)

Q: What about the GI50 [17] of the same compound?
A: 18.9 µM (inactive)

Q: And the GI50 [18]?
A: 46.9 µM (inactive)

Q: What about the GI50 [19] of the same compound?
A: 33.5 µM (inactive)

Q: What about the GI50 [20] of the same compound?
A: 33.5 µM (inactive)

Q: What about the GI50 [21] of the same compound?
A: 21.1 µM (inactive)

Q: And the GI50 [22]?
A: 43.1 µM (inactive)

Q: And the GI50 [23]?
A: 60 µM (inactive)

Q: What about the GI50 [24] of the same compound?
A: 17.3 µM (inactive)

Q: What about the GI50 [25] of the same compound?
A: 27.5 µM (inactive)

Q: And the GI50 [26]?
A: 20.4 µM (inactive)

Q: What about the GI50 [27] of the same compound?
A: 23 µM (inactive)

Q: And the GI50 [28]?
A: 27.9 µM (inactive)

Q: What about the GI50 [29] of the same compound?
A: 30.2 µM (inactive)

Q: What about the GI50 [30] of the same compound?
A: 36.7 µM (inactive)

Q: And the GI50 [31]?
A: 38.1 µM (inactive)

Q: What about the GI50 [32] of the same compound?
A: 32.3 µM (inactive)

Q: What about the GI50 [33] of the same compound?
A: 35.2 µM (inactive)

Q: What about the GI50 [34] of the same compound?
A: 37.2 µM (inactive)

Q: What about the GI50 [35] of the same compound?
A: 33.4 µM

Q: What about the GI50 [36] of the same compound?
A: 21.5 µM (inactive)

Q: What about the GI50 [37] of the same compound?
A: 30.6 µM (inactive)

Q: And the GI50 [38]?
A: 31.7 µM (inactive)

Q: And the GI50 [39]?
A: 28.3 µM (inactive)

Q: And the GI50 [40]?
A: 17.7 µM (inactive)

Q: And the GI50 [41]?
A: 37.8 µM (inactive)

Q: What about the GI50 [42] of the same compound?
A: 30.4 µM (inactive)

Q: And the GI50 [43]?
A: 27.8 µM (inactive)

Q: What about the GI50 [44] of the same compound?
A: 19.9 µM (inactive)

Q: And the GI50 [45]?
A: 21.3 µM (inactive)

Q: What about the GI50 [46] of the same compound?
A: 55.5 µM (inactive)

Q: And the GI50 [47]?
A: 27.3 µM (inactive)

Q: And the GI50 [48]?
A: 37.8 µM (inactive)

Q: What about the GI50 [49] of the same compound?
A: 23 µM (inactive)

Q: And the GI50 [50]?
A: 31.4 µM (inactive)

Q: What about the GI50 [51] of the same compound?
A: 37.8 µM (inactive)

Q: And the GI50 [52]?
A: 34.2 µM (inactive)

Q: What about the GI50 [53] of the same compound?
A: 22.3 µM (inactive)

Q: What about the GI50 [54] of the same compound?
A: 41.2 µM (inactive)

Q: Which results are given for O=C(Nc1ccccc1C(=O)Nc1nccs1)c1ccccc1?
A: GI50 [1]: 14.3 µM (inactive); GI50 [2]: 4.44 µM (inactive); GI50 [3]: 6.17 µM (inactive); GI50 [4]: 6.52 µM (inactive); GI50 [5]: 59 µM (inactive); GI50 [6]: 31 µM (inactive); GI50 [55]: 13.5 µM (inactive); GI50 [56]: 3.81 µM (inactive); GI50 [7]: 5.22 µM (inactive); GI50 [9]: 6.03 µM (inactive); GI50 [10]: 25.6 µM (inactive); GI50 [12]: 20.7 µM (inactive); GI50 [13]: 31.9 µM (inactive); GI50 [14]: 12.4 µM (inactive); GI50 [15]: 25.8 µM (inactive); GI50 [16]: 35.8 µM (inactive); GI50 [17]: 10.5 µM (inactive); GI50 [18]: 23.2 µM (inactive); GI50 [19]: 36.6 µM (inactive); GI50 [20]: 14.6 µM (inactive); GI50 [21]: 25.1 µM (inactive); GI50 [22]: 32.5 µM (inactive); GI50 [23]: 2.84 µM (inactive); GI50 [24]: 25.2 µM (inactive); GI50 [25]: 12.1 µM (inactive); GI50 [26]: 3.98 µM (inactive); GI50 [27]: 3.44 µM (inactive); GI50 [28]: 23.9 µM (inactive); GI50 [29]: 19.5 µM (inactive); GI50 [57]: 21.1 µM (inactive); GI50 [30]: 54.5 µM (inactive); GI50 [31]: 65.8 µM (inactive); GI50 [32]: 7.89 µM (inactive); GI50 [58]: 43 µM (inactive); GI50 [34]: 11.2 µM (inactive); GI50 [35]: 4.37 µM; GI50 [36]: 4.04 µM (inactive); GI50 [37]: 15.1 µM (inactive); GI50 [38]: 21.3 µM (inactive); GI50 [39]: 4.83 µM (inactive); GI50 [40]: 4.55 µM (inactive); GI50 [41]: 8.51 µM (inactive); GI50 [42]: 12.8 µM (inactive); GI50 [43]: 16.4 µM (inactive); GI50 [44]: 7.31 µM (inactive); GI50 [45]: 6.65 µM (inactive); GI50 [46]: 13.6 µM (inactive); GI50 [47]: 3.82 µM (inactive); GI50 [48]: > 100 µM (inactive); GI50 [49]: 14.3 µM (inactive); GI50 [50]: 16.6 µM (inactive); GI50 [51]: 19.7 µM (inactive); GI50 [52]: 33.7 µM (inactive); GI50 [59]: 4.98 µM (inactive); GI50 [53]: 2.45 µM (inactive); GI50 [54]: 25.6 µM (inactive)

Q: What does the source list for Oc1cc(CN2COc3ccccc32)c(O)cc1CNC1CCCCC1?
A: GI50 [1]: 29.2 µM (inactive); GI50 [2]: 22 µM (inactive); GI50 [3]: 37.2 µM (inactive); GI50 [4]: 17.7 µM (inactive); GI50 [5]: 30.7 µM (inactive); GI50 [6]: 15 µM (inactive); GI50 [56]: 17.1 µM (inactive); GI50 [7]: 23.3 µM (inactive); GI50 [8]: 28.2 µM (inactive); GI50 [9]: 49.9 µM (inactive); GI50 [10]: 21.6 µM (inactive); GI50 [11]: 21.5 µM (inactive); GI50 [12]: 21.8 µM (inactive); GI50 [13]: > 100 µM (inactive); GI50 [14]: > 100 µM (inactive); GI50 [15]: > 100 µM (inactive); GI50 [16]: 32.8 µM (inactive); GI50 [17]: 18.9 µM (inactive); GI50 [18]: 64.9 µM (inactive); GI50 [19]: 17.3 µM (inactive); GI50 [20]: 16.2 µM (inactive); GI50 [21]: 21.9 µM (inactive); GI50 [23]: 26.4 µM (inactive); GI50 [24]: 23.9 µM (inactive); GI50 [25]: 18.3 µM (inactive); GI50 [26]: 26.2 µM (inactive); GI50 [27]: 8.79 µM (inactive); GI50 [28]: 28.7 µM (inactive); GI50 [29]: 17.7 µM (inactive); GI50 [57]: 18.8 µM (inactive); GI50 [30]: 24 µM (inactive); GI50 [31]: 22.3 µM (inactive); GI50 [32]: 35.4 µM (inactive); GI50 [58]: 19.5 µM (inactive); GI50 [33]: 20.3 µM (inactive); GI50 [34]: 21.9 µM (inactive); GI50 [35]: 20.1 µM; GI50 [36]: 17 µM (inactive); GI50 [37]: 29.9 µM (inactive); GI50 [38]: 28.3 µM (inactive); GI50 [39]: 16.6 µM (inactive); GI50 [40]: 19.3 µM (inactive); GI50 [41]: 22 µM (inactive); GI50 [42]: 20.4 µM (inactive); GI50 [43]: 18.5 µM (inactive); GI50 [44]: 20.1 µM (inactive); GI50 [45]: 23.8 µM (inactive); GI50 [46]: 45.2 µM (inactive); GI50 [48]: > 100 µM (inactive); GI50 [49]: 14.1 µM (inactive); GI50 [50]: 71.1 µM (inactive); GI50 [51]: 31.3 µM (inactive); GI50 [52]: 24.6 µM (inactive); GI50 [59]: 4.53 µM (inactive); GI50 [53]: 19.3 µM (inactive); GI50 [54]: 35.6 µM (inactive)
